Measured values as given in ChEMBL document CHEMBL1201862, “PubChem BioAssay data set” (2004).
Active and inactive are the calls of the source.

How the values were obtained:
[1] = Luminescence Cell-Based Dose Response to Identify Activators of 5'UTR Stem-Loop Driven Prion Protein mRNA Translation in H4-C Neuroglioblastoma Cells. [Related pubchem assays: 1829 (Project Summary), 1814 (Primary HTS)]; assay type: functional
[2] = Luminescence Cell-Based Dose Confirmation HTS to Identify Activators of 5'UTR Stem-Loop Driven Alpha-Synuclein mRNA Translation in H4 Neuroglioblastoma Cells. [Related pubchem assays: 1829 (Project Summary), 1814 (Primary HTS)]; assay type: functional
[3] = Luminescence Cell-Based Dose Response HTS to Identify Activators of Luciferase Translation or Activity in H4 […] Cells. [Related pubchem assays: 1829 (Project Summary), 1814 (Primary HTS)]; assay type: functional
[4] = tested on: H4; assay: Luminescence Cell-Based Dose Response HTS to Identify Activators of 5'UTR Stem-Loop Driven Prion Protein mRNA Translation in H4 Neuroglioblastoma Cells. [Related pubchem assays: 1829 (Project Summary), 1814 (Primary HTS)]; assay type: functional; details: Homo sapiens
[5] = Luminescence Cell-Based Dose Response to Identify Activators of Luciferase Translation or Activity in H4-C Neuroglioblastoma Cells. [Related pubchem assays: 1829 (Project Summary), 1814 (Primary HTS)]; assay type: functional
[6] = microbe, parasite or virus in culture; assay type: functional; details: Mycobacterium tuberculosis
[7] = growth suppression of PTEN-null colon cells, dose response, cell-based, HCT116 PTEN knockout (AID 1047); assay type: functional;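 note: HCT116 colon tumor cells with PTEN knocked out; cells exposed to compound for 60 hours before readout; potency for loss of cell viability measured by luminescence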
[8] = Luminescence Cell-Based Dose Confirmation to Identify Activators of 5'UTR Stem-Loop Driven Alpha-Synuclein mRNA Translation in H4 Neuroglioblastoma Cells. [Related pubchem assays: 1829 (Project Summary), 1814 (Primary HTS)]; assay type: functional
[9] = growth suppression of beta-catenin-knockout colon cells, dose response, cell-based, HCT116, human colon tumor (AID 1045); assay type: functional;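 note: HCT116 colon tumor cells with beta catenin knocked out; cells exposed to compound for 60 hours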
[10] = THP-1 cell cytotoxicity, dose response, cytotoxicity control for non-replicating M. tuberculosis project (AID 489025); assay type: functional
[11] = HepG2 cell cytotoxicity, dose response, cytotoxicity control for non-replicating M. tuberculosis project (AID 489018); assay type: functional; details: Mycobacterium tuberculosis
[12] = Vero E6 cell cytotoxicity, dose response, cytotoxicity control for non-replicating M. tuberculosis project, secondary assay (AID 492998); assay type: functional, VeroE6; details: Vero C1008
[13] = cells; assay type: functional
[14] = molecular target: Heat shock protein HSP 90-alpha (Homo sapiens, UniProt P07900); assay type: functional, organism-based
[15] = tested on: INS1; assay: beta cell apoptosis inhibitors, cytokine rescue, dose response, luminescence, retest (AID 449756); assay type: functional, cell-based; details: Rattus norvegicus;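 note: cell death triggered by IL-1 beta plus TNF-alpha plus IFN-gamma mixture; protective hits raise ATP signal compared with cytokine alone wells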
[16] = molecular target: Paired box protein Pax-8 (Homo sapiens, UniProt Q06710); assay: inhibitors of PAX8-driven TPO luciferase reporter, dose response, RMG-I cells, cherry-pick (AID 687027); assay type: functional, cell-based;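 note: luciferase reporter driven by Pax8 target thyroperoxidase promoter measured by SteadyGlo luminescence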
Sequence of Paired box protein Pax-8 (Q06710 whole entry): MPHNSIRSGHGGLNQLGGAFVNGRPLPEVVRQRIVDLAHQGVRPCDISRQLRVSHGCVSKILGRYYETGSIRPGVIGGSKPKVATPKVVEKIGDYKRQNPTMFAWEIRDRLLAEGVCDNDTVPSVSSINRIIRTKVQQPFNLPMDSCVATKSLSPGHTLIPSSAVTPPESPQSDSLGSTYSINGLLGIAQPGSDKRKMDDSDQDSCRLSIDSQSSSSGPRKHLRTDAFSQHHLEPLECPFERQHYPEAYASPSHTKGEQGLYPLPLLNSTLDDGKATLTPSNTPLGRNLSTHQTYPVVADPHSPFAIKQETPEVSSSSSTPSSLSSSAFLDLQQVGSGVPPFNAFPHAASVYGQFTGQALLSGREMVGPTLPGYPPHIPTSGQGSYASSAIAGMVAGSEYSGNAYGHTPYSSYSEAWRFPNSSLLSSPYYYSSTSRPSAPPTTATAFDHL

[17] = THP-1 cell cytotoxicity, dose response, cytotoxicity control for Vif-APOBEC3G degradation inhibitor project, THP-1 cells (AID 1117359); assay type: functional; details: Human immunodeficiency virus 1, THP-1
[18] = molecular target: SUMO-activating enzyme (Homo sapiens, UniProt Q9UBT2); assay: SUMOylation inhibitor hit validation, confirmation, SUMOylation inhibitor project, biochemical, AlphaScreen (AID 2018); assay type: functional
Sequence of SUMO-activating enzyme (Q9UBE0 whole entry): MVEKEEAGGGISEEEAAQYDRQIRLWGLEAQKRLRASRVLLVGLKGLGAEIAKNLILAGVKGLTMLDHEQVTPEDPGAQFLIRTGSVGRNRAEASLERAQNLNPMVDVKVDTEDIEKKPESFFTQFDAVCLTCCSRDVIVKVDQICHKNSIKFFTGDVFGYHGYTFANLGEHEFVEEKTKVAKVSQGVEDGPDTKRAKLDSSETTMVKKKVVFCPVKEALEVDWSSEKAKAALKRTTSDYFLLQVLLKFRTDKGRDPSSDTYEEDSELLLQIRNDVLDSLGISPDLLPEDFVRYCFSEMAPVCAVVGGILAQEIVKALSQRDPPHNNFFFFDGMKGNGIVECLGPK
Sequence of SUMO-activating enzyme (Q9UBT2 whole entry): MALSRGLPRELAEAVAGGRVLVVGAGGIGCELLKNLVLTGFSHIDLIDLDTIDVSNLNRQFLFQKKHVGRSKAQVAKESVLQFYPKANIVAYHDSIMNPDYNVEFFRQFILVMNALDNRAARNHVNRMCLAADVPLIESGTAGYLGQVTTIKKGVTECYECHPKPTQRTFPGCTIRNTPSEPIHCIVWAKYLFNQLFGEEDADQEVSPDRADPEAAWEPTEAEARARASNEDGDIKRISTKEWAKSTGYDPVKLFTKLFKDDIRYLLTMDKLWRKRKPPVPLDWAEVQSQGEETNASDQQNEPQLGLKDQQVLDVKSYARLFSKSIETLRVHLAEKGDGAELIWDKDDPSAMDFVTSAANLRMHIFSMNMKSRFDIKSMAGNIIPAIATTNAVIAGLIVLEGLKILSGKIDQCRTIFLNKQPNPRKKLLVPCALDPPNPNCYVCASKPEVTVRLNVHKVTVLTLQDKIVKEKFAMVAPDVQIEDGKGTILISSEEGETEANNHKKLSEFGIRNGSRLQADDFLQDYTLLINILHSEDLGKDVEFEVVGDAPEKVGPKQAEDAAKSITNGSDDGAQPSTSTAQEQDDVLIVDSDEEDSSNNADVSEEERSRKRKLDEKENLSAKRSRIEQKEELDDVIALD

[19] = inhibitors of firefly luciferase expression or activity, dose response, H4 neuroglioma cells, luminescence (AID 1990); assay type: functional, cell-based
[20] = luciferase reporter signal reduction – luminescence, H4-C neuroglioblastoma cells, dose response (AID 2458); assay type: functional, cell-based;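 note: H4 neuroglioblastoma cells stably carrying a luciferase reporter gene fusion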
[21] = tested on: BJ; assay: cytotoxicity toward BJ-TERT fibroblasts, dose response, cell-based, RAS-independent, luminescence (AID 1933); assay type: functional; details: Homo sapiens
[22] = cells; assay type: functional, cell-based
[23] = Luminescence Cell-Based Dose Response HTS to Identify Inhibitors of 5'UTR Stem-Loop Driven Prion Protein mRNA Translation in H4 Neuroglioblastoma Cells. [Related pubchem assays: 1827 (Project Summary), 1813 (Primary HTS)]; assay type: functional
[24] = inhibitors of SNCA 5'UTR-driven reporter translation, confirmation, H4 neuroglioma cells, luminescence (AID 1988); assay type: functional, cell-based
[25] = tested on: BJ; assay: cells; assay type: functional, cell-based; details: Homo sapiens
[26] = tested on: BJ; assay: cytotoxicity toward BJ-TERT-LT-ST fibroblasts, dose response, cell-based, RAS-independent, luminescence (AID 1935); assay type: functional; details: Homo sapiens;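 note: BJ fibroblasts immortalized with TERT plus LT and ST oncogenes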
[27] = cytotoxicity toward DRD oncogenic fibroblasts, dose response, cell-based, non-viral oncogenic, luminescence (AID 1934); assay type: functional; details: Homo sapiens
[28] = inhibitors of SNCA 5'UTR-driven translation, confirmation, luminescence, H4 neuroglioblastoma cells, dose confirmation (AID 2454); assay type: functional, cell-based;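 note: H4 neuroglioblastoma cells carrying an alpha-synuclein 5'UTR luciferase reporter; potency for inhibition of the luciferase signal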
[29] = cytotoxicity in HEK-293T cells, dose response, cytotoxicity control for TCR NF-kB inhibitor project, luminescence, T-cell screen hits (AID 489026); assay type: functional, cell-based;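 note: cells exposed to compound about 14 hours before the viability readout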
[30] = tested on: BJ; assay: cytotoxicity toward Ras-transformed BJeLR fibroblasts, dose response, cell-based, alamar blue fluorescence, cherrypicked samples (AID 2631); assay type: functional; details: Homo sapiens;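 note: confirmatory dose-response assay in RAS-dependent BJ fibroblasts engineered with TERT, LT and ST, with cytotoxicity read by fluorescence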
[31] = NIH-3T3 fibroblast cytotoxicity, dose response, cytotoxicity control, cell-based, fluorescence, Alamar Blue, secondary assay (AID 2327); assay type: functional;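 note: NIH-3T3 mouse fibroblasts cultured with fluconazole at 8 µg/mL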
[32] = C. albicans growth with fluconazole, confirmation, fluorescence, retest (AID 2467); assay type: functional, cell-based
[33] = molecular target: Disintegrin and metalloproteinase domain-containing protein 17 (Homo sapiens, UniProt P78536); assay: exosite inhibitors of ADAM17, dose response, biochemical (AID 743260)
Sequence of Disintegrin and metalloproteinase domain-containing protein 17 (P78536 whole entry, the tested form may be a part): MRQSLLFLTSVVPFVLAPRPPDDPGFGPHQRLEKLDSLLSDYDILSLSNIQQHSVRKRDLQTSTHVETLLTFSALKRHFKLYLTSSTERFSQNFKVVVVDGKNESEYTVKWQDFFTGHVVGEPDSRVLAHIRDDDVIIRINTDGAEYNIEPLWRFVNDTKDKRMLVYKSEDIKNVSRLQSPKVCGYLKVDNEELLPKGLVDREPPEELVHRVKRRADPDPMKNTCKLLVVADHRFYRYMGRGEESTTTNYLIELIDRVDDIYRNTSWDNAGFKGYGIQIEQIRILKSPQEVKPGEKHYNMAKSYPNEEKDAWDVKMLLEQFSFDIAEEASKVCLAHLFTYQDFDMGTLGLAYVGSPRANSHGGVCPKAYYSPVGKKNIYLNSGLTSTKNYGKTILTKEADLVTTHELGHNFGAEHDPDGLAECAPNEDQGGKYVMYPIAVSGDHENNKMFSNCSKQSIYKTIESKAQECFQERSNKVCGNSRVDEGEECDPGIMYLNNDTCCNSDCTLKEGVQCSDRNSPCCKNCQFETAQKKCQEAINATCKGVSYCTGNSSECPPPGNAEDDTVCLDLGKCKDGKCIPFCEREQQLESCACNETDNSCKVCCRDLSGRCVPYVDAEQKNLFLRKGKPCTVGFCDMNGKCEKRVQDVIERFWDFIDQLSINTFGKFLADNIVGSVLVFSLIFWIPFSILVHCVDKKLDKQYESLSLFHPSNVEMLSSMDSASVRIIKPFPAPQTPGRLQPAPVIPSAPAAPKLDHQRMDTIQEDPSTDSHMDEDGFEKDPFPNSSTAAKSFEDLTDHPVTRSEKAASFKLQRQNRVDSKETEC

[34] = ADAM10 protease inhibitors, dose response, selectivity assay for ADAM17 exosite inhibitor project, biochemical, FRET peptide substrate, recombinant human ADAM10 (AID 743259);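 note: ADAM10 enzyme cleaving a FRET peptide substrate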
[35] = molecular target: Intestinal-type alkaline phosphatase (Mus musculus, UniProt P24822); assay: PubChem AID 488785; assay type: functional
Sequence of Intestinal-type alkaline phosphatase (Mus musculus, UniProt P24822) (P24822 whole entry): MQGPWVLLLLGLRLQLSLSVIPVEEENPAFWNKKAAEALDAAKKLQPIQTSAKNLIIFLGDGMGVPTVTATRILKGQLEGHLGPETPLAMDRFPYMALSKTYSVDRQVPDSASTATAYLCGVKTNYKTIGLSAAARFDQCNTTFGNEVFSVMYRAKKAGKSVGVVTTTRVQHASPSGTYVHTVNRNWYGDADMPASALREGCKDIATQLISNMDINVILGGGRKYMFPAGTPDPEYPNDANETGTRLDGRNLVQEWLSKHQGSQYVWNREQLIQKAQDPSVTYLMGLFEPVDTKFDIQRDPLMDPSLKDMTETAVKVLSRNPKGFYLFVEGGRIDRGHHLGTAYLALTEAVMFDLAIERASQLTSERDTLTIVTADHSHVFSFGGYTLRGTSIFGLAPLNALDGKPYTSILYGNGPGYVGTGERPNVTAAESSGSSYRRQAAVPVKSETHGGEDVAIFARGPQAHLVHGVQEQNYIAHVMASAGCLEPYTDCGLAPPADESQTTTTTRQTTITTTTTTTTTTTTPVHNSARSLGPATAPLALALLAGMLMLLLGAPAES

[36] = molecular target: T1, Alkaline phosphatase, tissue-nonspecific isozyme (Homo sapiens, UniProt P05186); assay: TNAP enzyme inhibition by screening hits, dose response, selectivity assay for mouse IAP inhibitor project, biochemical, human TNAP, uHTS hits (AID 488906); assay type: functional
T1 sequence (P05186 whole entry): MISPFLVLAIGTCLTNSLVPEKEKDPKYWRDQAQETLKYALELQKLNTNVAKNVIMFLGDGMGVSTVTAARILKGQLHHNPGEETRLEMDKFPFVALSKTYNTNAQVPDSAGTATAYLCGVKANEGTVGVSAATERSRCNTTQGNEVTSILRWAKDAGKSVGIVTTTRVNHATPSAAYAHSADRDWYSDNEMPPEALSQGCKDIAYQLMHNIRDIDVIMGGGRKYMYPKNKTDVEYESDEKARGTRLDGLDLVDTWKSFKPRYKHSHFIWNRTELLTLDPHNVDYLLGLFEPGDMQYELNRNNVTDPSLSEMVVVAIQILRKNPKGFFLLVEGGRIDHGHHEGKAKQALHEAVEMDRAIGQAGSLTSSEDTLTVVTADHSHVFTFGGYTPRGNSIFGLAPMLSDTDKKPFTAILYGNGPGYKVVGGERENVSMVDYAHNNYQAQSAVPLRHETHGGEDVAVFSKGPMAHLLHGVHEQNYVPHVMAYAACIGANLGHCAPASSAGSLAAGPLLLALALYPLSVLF

[37] = molecular target: Intestinal-type alkaline phosphatase (Homo sapiens, UniProt P09923); assay: inhibition of human intestinal alkaline phosphatase – biochemical, dose response (AID 488876); assay type: functional
Sequence of Intestinal-type alkaline phosphatase (Homo sapiens, UniProt P09923) (P09923 whole entry): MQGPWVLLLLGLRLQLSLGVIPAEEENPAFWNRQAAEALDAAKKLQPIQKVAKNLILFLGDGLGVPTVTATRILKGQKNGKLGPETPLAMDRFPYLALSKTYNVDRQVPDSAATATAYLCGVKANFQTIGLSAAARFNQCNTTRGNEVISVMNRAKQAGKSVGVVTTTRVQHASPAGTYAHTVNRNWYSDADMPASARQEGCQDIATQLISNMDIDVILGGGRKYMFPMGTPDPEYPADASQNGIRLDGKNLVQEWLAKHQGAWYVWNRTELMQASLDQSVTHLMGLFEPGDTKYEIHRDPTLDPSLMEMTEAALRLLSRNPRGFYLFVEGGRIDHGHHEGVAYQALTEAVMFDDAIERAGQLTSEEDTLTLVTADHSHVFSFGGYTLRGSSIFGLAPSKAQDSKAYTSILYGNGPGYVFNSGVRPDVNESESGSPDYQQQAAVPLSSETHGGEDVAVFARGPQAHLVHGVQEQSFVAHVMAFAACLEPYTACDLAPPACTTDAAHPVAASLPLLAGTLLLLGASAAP

[38] = Luminescence Cell-Based Dose Retest to Confirm Inhibitors of Cancer Stem Cells. [Related pubchem assays (depositor defined):AID2717, AID2721]; assay type: functional; details: Homo sapiens
[39] = molecular target: DNA dC->dU-editing enzyme APOBEC-3G (Homo sapiens, UniProt Q9HC16); assay: Dose Response confirmation of small molecule APOBEC3G DNA Deaminase Inhibitors via a fluorescence-based single-stranded DNA deaminase assay. [Related pubchem assays (depositor defined):AID493012, AID493028]; assay type: functional
Sequence of DNA dC->dU-editing enzyme APOBEC-3G (Q9HC16 whole entry): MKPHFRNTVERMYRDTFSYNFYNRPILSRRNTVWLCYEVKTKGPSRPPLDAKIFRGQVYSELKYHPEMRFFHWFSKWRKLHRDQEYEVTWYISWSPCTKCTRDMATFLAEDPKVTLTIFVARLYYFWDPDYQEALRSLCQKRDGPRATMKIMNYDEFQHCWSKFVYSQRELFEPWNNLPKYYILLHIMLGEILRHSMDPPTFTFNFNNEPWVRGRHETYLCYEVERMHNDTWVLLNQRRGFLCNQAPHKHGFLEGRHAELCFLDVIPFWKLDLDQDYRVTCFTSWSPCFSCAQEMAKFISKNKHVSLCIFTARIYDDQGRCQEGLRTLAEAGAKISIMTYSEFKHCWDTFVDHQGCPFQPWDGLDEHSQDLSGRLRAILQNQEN

SMILES: Cc1cc(-c2nnc(S)n2/N=C/C(Br)=C/c2ccccc2)[nH]n1
- EC50 [1]: > 12 µM (not active)
- EC50 [2]: 77.7 µM (active)
- EC50 [3]: < 0.1 µM (active)
- EC50 [4]: > 120 µM (not active)
- EC50 [5]: 8.65 µM (active)
- CC50 [6]: 29.3 µM (active)
- EC50 [7]: 1.96 µM (active)
- EC50 [8]: 0.943 µM (active)
- EC50 [9]: 1.52 µM (active)
- CC50 [10]: 11.1 µM (active)
- CC50 [11]: > 20 µM (active)
- CC50 [12]: 9.01 µM (active)
- IC50 [13]: 4.68 µM (active)
- AC50 [14]: 10.4 µM (active)
- AC50 [15]: > 60 µM (inactive)
- AC50 [16]: 2.78 µM (active)

SMILES: O=C(CCCN1C(=O)/C(=C\c2ccco2)SC1=S)Nc1cccc2ccccc12
- CC50 [17]: 29 µM (active)

SMILES: O=C1N(c2ccc(Cl)c(Cl)c2)CN(Cc2ccccc2)CN1n1cnnc1
- IC50 [18]: > 100 µM (inactive)

SMILES: Cc1cc(C)c([N+](=O)[O-])cc1-c1ccc(/C=N/c2c(-c3ccco3)nc3ccccn23)o1
- EC50 [2]: 8.26 µM (active)
- EC50 [3]: 12 µM (active)
- EC50 [4]: 14.8 µM (active)
- CC50 [17]: 31.6 µM (active)

SMILES: COc1ccccc1N1CCN(C(=O)c2cc(=O)c3cc(C)cc(C)c3o2)CC1
- EC50 [19]: 0.101 µM (active)
- EC50 [20]: 0.289 µM (active)
- EC50 [21]: 0.346 µM (active)
- EC50 [22]: 0.415 µM (active)
- EC50 [23]: 0.127 µM (active)
- EC50 [24]: < 0.1 µM (active)
- EC50 [25]: 0.938 µM (active)
- EC50 [26]: 0.229 µM (inconclusive)
- EC50 [27]: 0.375 µM (active)
- EC50 [28]: 0.259 µM (active)
- IC50 [29]: > 80 µM (inactive)
- EC50 [30]: < 0.104 µM (active)

SMILES: O=[N+]([O-])CC(c1ccccc1)P(=O)(c1ccccc1)c1ccccc1 (stereo unspecified)
- EC50 [31]: > 160 µM (inactive)
- EC50 [32]: 5.58 µM (active)
- IC50 [33]: 10.9 µM (inactive)
- IC50 [34]: > 69.5 µM (inactive)

SMILES: COc1ccc(C2CC(c3ccccc3Cl)=NN2c2ccc(S(N)(=O)=O)cc2)cc1 (stereo unspecified)
- IC50 [35]: 6.02 µM (active)
- IC50 [36]: > 100 µM (inactive)
- IC50 [37]: > 100 µM (inactive)

SMILES: CCC(C)NCCOc1ccc(C(C)(C)c2ccccc2)cc1 (stereo unspecified)
- CC50 [10]: 27.6 µM (active)
- AC50 [38]: 1.63 µM (active)
- CC50 [11]: 19.5 µM (active)
- IC50 [13]: 11.7 µM (active)

SMILES: O=C(Cc1ccc(Cl)cc1Cl)Nc1cccc(S(=O)(=O)Nc2ccccc2F)c1
- IC50 [39]: 29.4 µM (active)
